Source: patent US8283373B2, “Inhibitors of cytosolic phospholipase A2” (Pfizer Inc., priority 2005, dated 2012)

Key:
[1] = system: experimental autoimmune encephalomyelitis (EAE); test: Experimental autoimmune encephalomyelitis (EAE) model of multiple sclerosis; assay type: in vivo, mouse
Experimental: Six groups of B6 mice were immunized with MOG/CFA and injected with pertussis toxin to induce experimental autoimmune encephalomyelitis (EAE), an animal model of Multiple sclerosis. Three groups of mice were treated with vehicle, 4-{3-[1-benzhydryl-5-chloro-2-(2-{[(2,6-dimethylbenzyl)sulfonyl]amino}ethyl)-1H-indol-3-yl]propyl}benzoic acid (Compound A), or 4-{2-[1-benzhydryl-5-chloro-2-(2-{[(3,4-dichlorobenzyl)sulfonyl]amino}-ethyl)-1H-indol-3-yl]ethoxy}benzoic acid (Compound B) from the day of Immunization (orally, 100 mg/kg, twice/day). Another three groups of mice were treated with vehicle, Compound A or Compound B starting on the day of EAE onset (day 15) (orally, 100 mg/kg, twice/day). […] The results are shown in the Table below, wherein mean clinical score is a mean of clinical evaluation of each animal for that particular day.
Animals are Scored as Follows:
• 0—no clinical signs of EAE (no paralysis) • 1—paralysis of tail • 2—paralysis of tail and partial hind leg paralysis • 3—paralysis of tail and complete hind leg paralysis • 4—paralysis of tail, complete hind leg paralysis and a partial front leg paralysis • 5—moribund animal (all four limbs paralyzed, lack of responsiveness, these mice were immediately euthanized).
In addition, the compounds of Examples 14 and 25 were also found to be efficacious in the mouse experimental autoimmune encephalomyelitis (EAE) model of multiple sclerosis. As shown by the data in the Table below, these compounds led to a delayed onset of disease and reduced severity of disease when administered orally in doses as low as 2.5 mg/kg.

[2] = system: primary dopaminergic neurons; test: MPP+ exposure in dopaminergic neurons; assay type: cell-based, rat; settings: 10 μM MPP+ 60 minutes, control 100, MPP+ alone 56.6
Experimental: Primary dopaminergic neurons were isolated from E15 rat embryos as described in Pong K., et al., (1997) J. Neurochem. 69 986-994. Briefly, the ventral mesencephalon was isolated and tissue was pooled in ice-cold phosphate buffer saline (PBS) without Ca^2+ and Mg^2+. The tissue was transferred to an enzymatic dissociation media containing 20 IU/ml papain in Earle's balanced salt solution (Worthington Biochemical, Freehold, N.J.) and incubated for 30 minutes at 37° C. After enzymatic dissociation, the papain solution was aspirated and the tissue mechanically triturated with a fire-polished Pasteur pipette in complete media [Neurobasal Medium with B-27 supplement (Gibco, Grand Island, N.Y.), penicillin/streptomycin, aphidicolin, glutamate] containing 2,000 IU/ml DNase and 10 mg/ml ovomucoid protease inhibitor. Single-cell suspensions in complete media were plated on pre-coated poly-L-ornithine/laminin 24-well plates (Becton-Dickinson, Bedford, Mass.) at a density of 5.0×10^5 cells/well. Cells were maintained for one week prior to experimentation.
Cultures were exposed to 10 μM MPP^+ for 60 minutes. After the exposure, fresh media was exchanged and fresh compound was added. Dopaminergic neuron viability was determined 24 hours later by measuring ^3H-dopamine uptake as described in Pong et al., 1997, supra.

CFA-induced hyperalgesia = CFA-induced hyperalgesia model; assay type: in vivo, rat; settings: 6 hours after CFA
Source text: The sensitivity of peripheral sensory neurons can be enhanced such that they respond to both noxious and non-noxious stimuli resulting in chronic pain (See Julius, D. et al., Nature. 2001; 413:203; Woolf, C. J., et al., Science. […]; 288:1765). Prostaglandins and leukotrienes at the site of inflammation and tissue damage are partially responsible for this potentiation of the pain response. Prostaglandins promote the phosphorylation of ion channels, increasing the excitability and lowering the pain threshold of sensory neurons. Analogously, leukotriene B4 and related arachidonate metabolites of 12-LO bind to and activate the capsaicin receptor (or VR1) ion channel on neurons that respond to heat and low pH (See Piomelli D., TRENDS in Pharmacological Sciences, January 2001; 22(1):17-29). The effect of the compound of Example 10 was measured in the CFA-induced hyperalgesia model, and lipid mediator production was measured at peripheral and central sites.
The animals were dosed with vehicle, the compound of Example 10, naproxen or celecoxib, and then CFA was immediately injected into the hind footpad. To assess hyperalgesia, pressure was applied to the left hind paw at a slow and constant rate using a digital force gauge. Measurements were taken at 0 and 6 hours. The application of the force was stopped when the animal vocalized, or struggled. Readings were taken prior to dosing and CFA injection, and repeated six hours after the CFA injection. Two independent experiments were run and the data were analyzed separately.
The paws were collected at the end of each experiment (6 hours) and the levels of PGE2, LTB4 and TXB2 were measured in the exudates.

Q: Which results are given for `O=C(O)c1ccc(OCCc2c(CCNS(=O)(=O)Cc3ccc(Cl)c(Cl)c3)n(C(c3ccccc3)c3ccccc3)c3ccc(Cl)cc23)cc1` [Compound B, 4-{2-[1-benzhydryl-5-chloro-2-(2-{[(3,4-dichlorobenzyl)sulfonyl]amino}-ethyl)-1H-indol-3-yl]ethoxy}benzoic acid]?
A: mean clinical score ([1]; 100 mg/kg orally twice/day from EAE onset (day 15), day 11 after immunization): 0; mean clinical score ([1]; 100 mg/kg orally twice/day from EAE onset (day 15), day 12 after immunization): 0; mean clinical score ([1]; 100 mg/kg orally twice/day from EAE onset (day 15), day 13 after immunization): 0; mean clinical score ([1]; 100 mg/kg orally twice/day from EAE onset (day 15), day 14 after immunization): 0; mean clinical score ([1]; 100 mg/kg orally twice/day from EAE onset (day 15), day 15 after immunization): 0.10; mean clinical score ([1]; 100 mg/kg orally twice/day from EAE onset (day 15), day 16 after immunization): 0.45; mean clinical score ([1]; 100 mg/kg orally twice/day from EAE onset (day 15), day 17 after immunization): 0.80; mean clinical score ([1]; 100 mg/kg orally twice/day from EAE onset (day 15), day 18 after immunization): 1.05; mean clinical score ([1]; 100 mg/kg orally twice/day from EAE onset (day 15), day 19 after immunization): 1.10; mean clinical score ([1]; 100 mg/kg orally twice/day from EAE onset (day 15), day 20 after immunization): 1.00; mean clinical score ([1]; 100 mg/kg orally twice/day from EAE onset (day 15), day 21 after immunization): 1.20; mean clinical score ([1]; 100 mg/kg orally twice/day from EAE onset (day 15), day 22 after immunization): 1.10; mean clinical score ([1]; 100 mg/kg orally twice/day from EAE onset (day 15), day 23 after immunization): 1.40; mean clinical score ([1]; 100 mg/kg orally twice/day from EAE onset (day 15), day 24 after immunization): 1.35; mean clinical score ([1]; 100 mg/kg orally twice/day from EAE onset (day 15), day 25 after immunization): 1.25; mean clinical score ([1]; 100 mg/kg orally twice/day from EAE onset (day 15), day 26 after immunization): 1.40; mean clinical score ([1]; 100 mg/kg orally twice/day from EAE onset (day 15), day 27 after immunization): 1.55; mean clinical score ([1]; 100 mg/kg orally twice/day from day of immunization (Day 1), day 11 after immunization): 0; mean clinical score ([1]; 100 mg/kg orally twice/day from day of immunization (Day 1), day 12 after immunization): 0; mean clinical score ([1]; 100 mg/kg orally twice/day from day of immunization (Day 1), day 13 after immunization): 0; mean clinical score ([1]; 100 mg/kg orally twice/day from day of immunization (Day 1), day 14 after immunization): 0; mean clinical score ([1]; 100 mg/kg orally twice/day from day of immunization (Day 1), day 15 after immunization): 0; mean clinical score ([1]; 100 mg/kg orally twice/day from day of immunization (Day 1), day 16 after immunization): 0; mean clinical score ([1]; 100 mg/kg orally twice/day from day of immunization (Day 1), day 17 after immunization): 0.06; mean clinical score ([1]; 100 mg/kg orally twice/day from day of immunization (Day 1), day 18 after immunization): 0.06; mean clinical score ([1]; 100 mg/kg orally twice/day from day of immunization (Day 1), day 19 after immunization): 0.11; mean clinical score ([1]; 100 mg/kg orally twice/day from day of immunization (Day 1), day 20 after immunization): 0.39; mean clinical score ([1]; 100 mg/kg orally twice/day from day of immunization (Day 1), day 21 after immunization): 0.44; mean clinical score ([1]; 100 mg/kg orally twice/day from day of immunization (Day 1), day 22 after immunization): 0.50; mean clinical score ([1]; 100 mg/kg orally twice/day from day of immunization (Day 1), day 23 after immunization): 0.67; mean clinical score ([1]; 100 mg/kg orally twice/day from day of immunization (Day 1), day 24 after immunization): 0.56; mean clinical score ([1]; 100 mg/kg orally twice/day from day of immunization (Day 1), day 25 after immunization): 0.56; mean clinical score ([1]; 100 mg/kg orally twice/day from day of immunization (Day 1), day 26 after immunization): 0.56; mean clinical score ([1]; 100 mg/kg orally twice/day from day of immunization (Day 1), day 27 after immunization): 0.72; prevention of EAE / reduction of clinical severity ([1]; administered from the time of immunization, or in mice with or close to EAE): can prevent EAE; dopaminergic neuron viability (3H-dopamine uptake), Avg. ([2]; 0.3 μM): 74; dopaminergic neuron viability (3H-dopamine uptake), Avg. ([2]; 1 μM): 71.6; dopaminergic neuron viability (3H-dopamine uptake), Avg. ([2]; 3 μM): 78.6; dopaminergic neuron viability (3H-dopamine uptake), Avg. ([2]; 10 μM): 83.2

Q: What does the source list for `COc1ccc2cc([C@H](C)C(=O)O)ccc2c1` [naproxen, reference compound]?
A: LTB4 levels in paw exudates (CFA-induced hyperalgesia): increased; TXB2 levels in paw exudates (CFA-induced hyperalgesia): greater than the inhibition with celecoxib; PGE2 levels in paw exudates (CFA-induced hyperalgesia; Example 10 at 25 mg/kg): significantly inhibited
